Assay results: BindingDB's records for patent US20250115583 (Corcept Therapeutics, 2025)

Biological target: T1, Glucocorticoid receptor (Homo sapiens, UniProt P04150)
T1 sequence (P04150 whole entry): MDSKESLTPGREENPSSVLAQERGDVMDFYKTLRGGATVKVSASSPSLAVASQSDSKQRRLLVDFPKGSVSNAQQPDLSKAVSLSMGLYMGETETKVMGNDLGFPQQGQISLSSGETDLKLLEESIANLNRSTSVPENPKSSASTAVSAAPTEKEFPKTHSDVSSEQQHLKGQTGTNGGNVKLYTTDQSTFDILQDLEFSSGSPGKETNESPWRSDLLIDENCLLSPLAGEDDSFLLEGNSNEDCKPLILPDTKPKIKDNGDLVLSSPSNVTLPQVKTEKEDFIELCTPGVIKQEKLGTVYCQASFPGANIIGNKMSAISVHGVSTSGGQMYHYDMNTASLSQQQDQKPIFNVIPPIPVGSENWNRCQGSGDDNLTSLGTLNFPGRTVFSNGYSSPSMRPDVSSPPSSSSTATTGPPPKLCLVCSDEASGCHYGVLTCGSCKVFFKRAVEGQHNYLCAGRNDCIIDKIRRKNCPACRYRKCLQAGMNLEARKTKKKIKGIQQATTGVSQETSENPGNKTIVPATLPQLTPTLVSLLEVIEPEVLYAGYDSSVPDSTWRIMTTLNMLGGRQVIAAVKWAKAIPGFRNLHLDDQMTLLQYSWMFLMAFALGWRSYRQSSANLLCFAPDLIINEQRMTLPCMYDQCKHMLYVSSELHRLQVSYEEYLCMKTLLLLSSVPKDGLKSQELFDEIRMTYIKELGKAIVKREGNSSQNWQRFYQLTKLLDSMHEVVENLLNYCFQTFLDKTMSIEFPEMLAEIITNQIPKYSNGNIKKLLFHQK
Assay: GR Binding Assay
Procedure: Binding of test compounds to the glucocorticoid receptor (GR) is determined using a fluorescence polarisation (FP) assay utilising a recombinant ligand binding domain (LBD) of GR. The test compounds are assessed by their ability to displace a fluorescently tagged ligand and detection of the resulting decrease in fluorescence polarisation.

SMILES	Ki
Cc1cc2c(cnn2-c2ccc(F)cc2)cc1[C@@]12CN(S(=O)(=O)c3cnn(C)n3)C[C@@H]1[C@H]2C(=O)N1CCC1 [US20250115583, Example 59]	360 nM
Cc1cc2c(cnn2-c2ccc(F)cc2)cc1[C@@]12CN(C(=O)c3nn(C)cc3Cl)C[C@@H]1[C@H]2c1ccccc1 [US20250115583, Example 178]	19 nM
